The source of these data is US6395684B1, “Selective herbicides based on a substituted phenyl sulfonyl amino carbonyl triazolinone” (Bayer Aktiengesellschaft, priority 1998, dated 2002).

What all share (type): in vivo
In test [1] the test system is Avena. Put plainly: Post-emergence test/greenhouse. To be noted: greenhouse, after three weeks. The procedure:
(§1) Post-emergence Test/greenhouse Solvent: 5 parts by weight of acetone Emulsifier: 1 part by weight of alkylaryl polyglycol ether To produce a suitable preparation of active compound, 1 part by weight of active compound is mixed with the stated amount of solvent, the stated amount of emulsifier is added and the concentrate is diluted with water to the desired concentration. Test plants which have a height of 5-15 cm are sprayed with the preparation of active compound such that the particular amounts of active compound desired are applied per unit area. The concentration of the spray liquor is chosen so that the particular amounts of active compound desired are applied in 500 l of water/ha. After three weeks, the degree of damage to the plants is assessed in % damage in comparison to the development of the untreated control. The figures denote: 0%=no effect (like untreated control) 100% total destruction

Test [2] relates to Bromus. Description: Post-emergence test/greenhouse. To be noted: greenhouse, after three weeks. Here is the method:
as §1

The subject of test [3] is Lolium. Put plainly: Post-emergence test/greenhouse. The following applies: greenhouse, after three weeks. The procedure: as §1
For test [4], the system named is Wheat. Description: Post-emergence test/greenhouse. The following applies: greenhouse; for degree of damage to the plants (% damage in comparison to the untreated control): Wheat, after three weeks; for compatibility with crop plants (wheat), in words: sodium salt of (I) at 60 g/ha. Here is the method:
as §1

The subject of test [5] is Agropyron. Put plainly: Post-emergence test/greenhouse. To be noted: greenhouse, after three weeks. Here is the method:
as §1

Test [6] concerns weeds, such as, for example, Agropyron, Alopecurus, Avena, Bromus and Lolium. Description: Post-emergence test/greenhouse, summary for weeds. The following applies: greenhouse. Here is the method: Post-emergence Test/greenhouse Solvent: 5 parts by weight of acetone Emulsifier: 1 part by weight of alkylaryl polyglycol ether To produce a suitable preparation of active compound, 1 part by weight of active compound is mixed with the stated amount of solvent, the stated amount of emulsifier is added and the concentrate is diluted with water to the desired concentration. Test plants which have a height of 5-15 cm are sprayed with the preparation of active compound such that the particular amounts of active compound desired are applied per unit area. The concentration of the spray liquor is chosen so that the particular amounts of active compound desired are applied in 500 l of water/ha. After three weeks, the degree of damage to the plants is assessed in % damage in comparison to the development of the untreated control. […] [“ai.”=“active ingredient”].

In test [7] the test system is weeds, such as, for example, Agropyron, Alopecurus, Avena, Bromus, Lolium, Poa, Setaria and Sinapis. Put plainly: Pre-emergence test/greenhouse, summary for weeds. The following applies: greenhouse. The procedure:
(§2) Pre-emergence Test/greenhouse Solvent: 5 parts by weight of acetone Emulsifier: 1 part by weight of alkylaryl polyglycol ether To produce a suitable preparation of active compound, 1 part by weight of active compound is mixed with the stated amount of solvent, the stated amount of emulsifier is added and the concentrate is diluted with water to the desired concentration. Seeds of the test plants are sown in normal soil. After about 24 hours, the soil is sprayed with the preparation of active compound such that the particular amount of active compound desired is applied per unit area. The concentration of the spray liquor is chosen so that the particular amount of active compound desired is applied in 500 litres of water per hectare. After three weeks, the degree of damage to the plants is tested in % damage in comparison to the development of the untreated control.

Test [8] deals with Alopecurus. Put plainly: Post-emergence test/greenhouse. To be noted: greenhouse, after three weeks. Here is the method: as §1
Test [9] has as its system Alopecurus. Description: Pre-emergence test/greenhouse. To be noted: greenhouse, after three weeks. The procedure: as §2, with “control. The figures denote: 0% no effect (like untreated control) 100%=total destruction” for “control.”
Test [10] concerns Avena. Put plainly: Pre-emergence test/greenhouse. The following applies: greenhouse, after three weeks. The procedure: as §2, with “control. The figures denote: 0% no effect (like untreated control) 100%=total destruction” for “control.”
The subject of test [11] is Bromus. Put plainly: Pre-emergence test/greenhouse. To be noted: greenhouse, after three weeks. Here is the method: as §2, with “control. The figures denote: 0% no effect (like untreated control) 100%=total destruction” for “control.”
In the next test the test system is Setaria. Description: Pre-emergence test/greenhouse. To be noted: 500 g ai./ha, greenhouse, after three weeks. Here is the method:
as §2, with “control. The figures denote: 0% no effect (like untreated control) 100%=total destruction” for “control.”

Test [12] has as its system Lolium. Description: Pre-emergence test/greenhouse. The following applies: 500 g ai./ha, greenhouse, after three weeks. The procedure:
as §2, with “control. The figures denote: 0% no effect (like untreated control) 100%=total destruction” for “control.”

The test system of test [13] is Wheat. Put plainly: Pre-emergence test/greenhouse. The following applies: greenhouse; for degree of damage to the plants (% damage in comparison to the untreated control): Wheat, after three weeks. The procedure:
as §2, with “control. The figures denote: 0% no effect (like untreated control) 100%=total destruction” for “control.”

In a further test the test system is Amaranthus. Put plainly: Pre-emergence test/greenhouse. To be noted: 15 g ai./ha, greenhouse, after three weeks. The procedure:
as §2, with “control. The figures denote: 0% no effect (like untreated control) 100%=total destruction” for “control.”

Another test deals with Poa. Put plainly: Pre-emergence test/greenhouse. To be noted: 15 g ai./ha, greenhouse, after three weeks. Here is the method:
as §2, with “control. The figures denote: 0% no effect (like untreated control) 100%=total destruction” for “control.”

In another test the test system is Sinapis. Description: Pre-emergence test/greenhouse. To be noted: 15 g ai./ha, greenhouse, after three weeks. The procedure: as §2, with “control. The figures denote: 0% no effect (like untreated control) 100%=total destruction” for “control.”
The subject of test [14] is Agropyron. Description: Pre-emergence test/greenhouse. To be noted: 15 g ai./ha, greenhouse, after three weeks. Here is the method:
as §2, with “control. The figures denote: 0% no effect (like untreated control) 100%=total destruction” for “control.”

Where a name gives a salt, the structure may show the parent alone.

Consider `CCCOc1nn(C(=O)NS(=O)(=O)c2ccccc2C(=O)OCC)c(=O)n1C` [(D), 2-(2-Ethoxycarbonyl-phenylsulphonylaminocarbonyl)-4-methyl-5-propoxy-2,4-dihydro-3H-1,2,4-triazol-3-one], for which the “degree of damage to the plants (% damage in comparison to the untreated control)” value is 20% in the test with Avena [1] (60 g ai./ha); 80% in the test on Bromus [2] (60 g ai./ha); 30% in the test on Lolium [3] (60 g ai./ha); 0% with Wheat [4] (60 g ai./ha); 70% in the test with Agropyron [5] (60 g ai./ha). Further, the “herbicidal activity (in words, compared with the sodium salt of (I))” value in test [6] and in test [7] was “considerably weaker herbicidal activity” throughout.

Consider `CCCCOc1nn(C(=O)NS(=O)(=O)c2ccccc2C(=O)OC)c(=O)n1C` [(A), 2-(2-Methoxycarbonyl-phenylsulphonylaminocarbonyl)-4-methyl-5-butoxy-2,4-dihydro-3H-1,2,4-triazol-3-one], for which the “degree of damage to the plants (% damage in comparison to the untreated control)” value in the test on Alopecurus [8] (60 g ai./ha) amounted to 0%; in the test on Avena [1] (60 g ai./ha), 50%; in the test on Bromus [2] (60 g ai./ha), 0%; in the test with Lolium [3] (60 g ai./ha) it was 0%; with Wheat [4] (60 g ai./ha) it was 0%; in the test on Agropyron [5] (60 g ai./ha), 0%. In addition, the “degree of damage to the plants (% damage in comparison to the untreated control)” value in the test with Alopecurus [9] (500 g ai./ha) worked out at 20%; in the test on Avena [10] (500 g ai./ha), 0%; in the test with Bromus [11] (500 g ai./ha), 30%; in the test with Setaria, 0%; with Lolium [12] it was 0%; in the test with Wheat [13] (500 g ai./ha), 0%. Besides, the “herbicidal activity (in words, compared with the sodium salt of (I))” value in test [6] and in test [7] was “considerably weaker herbicidal activity” in each case.

Take `CCCOn1c(C)nn(C(=O)NS(=O)(=O)c2ccccc2C(=O)OC)c1=O` [(E), 2-(2-Methoxyxcarbonyl-phenylsulphonylaminocarbonyl)-4-propoxy-5-methyl-2,4-dihydro-3H-1,2,4-triazol-3-one]: the “degree of damage to the plants (% damage in comparison to the untreated control)” value is given as 70% with Alopecurus [8] (250 g ai./ha); 0% with Avena [1] (250 g ai./ha); 50% with Bromus [2] (250 g ai./ha); 50% in the test with Lolium [3] (250 g ai./ha); 0% with Wheat [4] (250 g ai./ha). Moreover, the “herbicidal activity (in words, compared with the sodium salt of (I))” value in test [6] and in test [7] was “considerably weaker herbicidal activity” each time.

For `CCOc1nn(C(=O)NS(=O)(=O)c2ccccc2C(=O)OC)c(=O)n1C` [(B), 2-(2-Methoxycarbonyl-phenylsulphonylaminocarbonyl)-4-methyl-5-ethoxy-2,4-dihydro-3H-1,2,4-triazol-3-one-sodium salt], the “degree of damage to the plants (% damage in comparison to the untreated control)” value came to 90% in the test on Alopecurus [8] (30 g ai./ha); 90% in the test with Avena [1] (30 g ai./ha); 80% in the test with Bromus [2] (30 g ai./ha); 90% in the test with Lolium [3] (30 g ai./ha); 60% in the test with Wheat [4] (30 g ai./ha); 90% in the test on Agropyron [5] (30 g ai./ha). For the same compound, the “degree of damage to the plants (% damage in comparison to the untreated control)” value in the test on Avena [10] (15 g ai./ha) is on record as 60%; in the test with Amaranthus, 70%; with Poa, 70%; in the test on Sinapis, 70%; in the test on Wheat [13] (15 g ai./ha) it was 40%; in the test on Agropyron [14], 40%. Further, the “compatibility with crop plants (wheat), in words” value in the test on Wheat [4] and in the test on Wheat [13] (sodium salt of (I) at 15 g/ha to 60 g/ha) was “not entirely compatible with wheat” throughout.

Consider `COC(=O)c1ccccc1S(=O)(=O)NC(=O)n1nc(OC(C)C)n(C)c1=O.[Na]` [(C), 2-(2-Methoxycarbonyl-phenylsulphonylaminocarbonyl)-4-methyl-5-isopropoxy-2,4-dihydro-3H-1,2,4-triazol-3-one-sodium salt], for which the “degree of damage to the plants (% damage in comparison to the untreated control)” value was determined as 70% in the test with Alopecurus [8] (60 g ai./ha); 50% with Avena [1] (60 g ai./ha); 70% in the test on Bromus [2] (60 g ai./ha); 70% in the test on Lolium [3] (60 g ai./ha); 0% in the test on Wheat [4] (60 g ai./ha); 60% in the test on Agropyron [5] (60 g ai./ha). Besides, the “herbicidal activity (in words, compared with the sodium salt of (I))” value in test [6] and in test [7] was “considerably weaker herbicidal activity” each time.

For the compound `CCCOc1nn(C(=O)NS(=O)(=O)c2ccccc2C(=O)OC)c(=O)n1CC` [(F), 2-(2-Methoxycarbonyl-phenylsulphonylaminocarbonyl)-4-ethyl-5-propoxy-2,4-dihydro-3H-1,2,4-triazol-3-one], the “degree of damage to the plants (% damage in comparison to the untreated control)” value in the test on Alopecurus [8] (60 g ai./ha) worked out at 50%; with Avena [1] (60 g ai./ha), 40%; in the test on Bromus [2] (60 g ai./ha), 50%; with Lolium [3] (60 g ai./ha), 30%; in the test with Wheat [4] (60 g ai./ha), 20%; in the test with Agropyron [5] (60 g ai./ha) it was 50%. The “degree of damage to the plants (% damage in comparison to the untreated control)” value with Alopecurus [9] (15 g ai./ha) is 40%; with Avena [10] (15 g ai./ha), 0%; in the test with Amaranthus it was 70%; with Bromus [11] (15 g ai./ha) it was 20%; in the test with Poa, 0%; in the test on Sinapis, 70%. Also, the “degree of damage to the plants (% damage in comparison to the untreated control)” value in the test with Wheat [13] (15 g ai./ha) and in the test on Agropyron [14] was 0% throughout. Further, the “compatibility with crop plants (wheat), in words” value with Wheat [4] is recorded as “not entirely compatible with wheat”. For the same compound, the “herbicidal activity (in words, compared with the sodium salt of (I))” value in test [6] and in [7] was “considerably weaker herbicidal activity” in each case.
